From patent US20260263433A1, “TETRAZOLIUM AND FORMAZAN COMPOUNDS AND METHODS OF MAKING AND USING THE SAME” (ARIZONA BOARD OF REGENTS ON BEHALF OF THE UNIVERSITY OF …, priority 2022, published 2026)

Experiments:
[1] = Reduction of tetrazolium salts by cyclic voltammetry in buffered aqueous solution; type: physicochemical; conditions: 50 mM PBS pH 7.4, 25° C., K3[Fe(CN)6] reference, irreversible reduction
Experimental: The reduction of all the tetrazolium salts was investigated by cyclic voltammetry in buffered aqueous solutions (50 mM phosphate buffered saline solution, pH 7.4, K3[Fe(CN)6] as reference E0=0.430 V vs. NHE, 25° C.). Each compound presents an irreversible reduction at a potential that varies considerably depending on the identity of the aryl substituents on the tetrazolium core. Although the peaks are rather broad and likely susceptible to shifts depending on the specific experimental conditions, the peak potentials (Table 1, referenced to NHE) of some of these tetrazolium compounds indicate that they are reduced outside the biologically relevant window. […] On the other hand, the fact that the tetrazolium compounds are harder to reduce relative to MTT (with the exception of the benzothiazole derivative 1b) makes them well suited for intracellular activation in the reducing microenvironment of malignant cells. Compounds 2b, 4b, 6b and 7b are likely to be reduced intracellularly to the formazan species.

Caco-2 (Colon) = assay: Antiproliferative activity, resazurin readout, Caco-2; type: cell-based, human; conditions: 72 h incubation, 0.032-100 μM, mean ± SDM, n = 3
Experimental: (§1) Once the stability data and the information on the reduction and iron binding of the new cohort of tetrazolium salts had been obtained, the antiproliferative activity of the new cohort was assessed in a panel of mammalian cell lines. Cancer cells require more iron than normal cells in order to sustain fast proliferation rate. Therefore, compounds that interfere with intracellular iron availability display antiproliferative activity.^12 Indeed iron chelation and prochelation strategies could provide new therapeutic avenues in anticancer drug discovery.^4
(§2) Cancer cell lines of different origin were selected (ovarian A2780, breast MDAMB-231, colon Caco-2, and lung A549), and a normal cell line (MRC-5, lung fibroblasts) was selected as a comparison.
(§3) Because the colorimetric MTT reagent is one of the compounds being tested in this panel, the reduction of resazurin to brightly fluorescent resorufin was chosen as a readout for the assessment of antiproliferative activity.

MDA-MB-231 (Breast) = assay: Antiproliferative activity, resazurin readout, MDA-MB-231; type: cell-based, human; conditions: 72 h incubation, 0.032-100 μM, mean ± SDM, n = 3
Experimental: as §1, §2, §3

[2] = tested on: panel of mammalian cell lines; assay: Antiproliferative activity across the panel of cell lines; type: cell-based, human; conditions: 72 h, tested cell lines
Experimental: as §1, §2, §3

MRC-5 (Normal lung) = assay: Antiproliferative activity, resazurin readout, MRC-5 normal lung fibroblasts; type: cell-based, human; conditions: 72 h incubation, 0.032-100 μM, mean ± SDM, n = 3
Experimental: as §1, §2, §3

A549 (Lung) = assay: Antiproliferative activity, resazurin readout, A549; type: cell-based, human; conditions: 72 h incubation, 0.032-100 μM, mean ± SDM, n = 3
Experimental: as §1, §2, §3

A2780 (Ovary) = assay: Antiproliferative activity, resazurin readout, A2780; type: cell-based, human; conditions: for IC50: 72 h incubation, 0.032-100 μM, mean ± SDM, n = 3
Experimental: as §1, §2, §3

[3] = Stability in fetal bovine serum monitored by HPLC; type: in vitro ADME; conditions: 24 h
Experimental: FIGS. 5A and 5B depict the assessment of stability of the tetrazolium-based prochelators in fetal bovine serum (FBS) for a period of 24 h.
The stability of exemplary tetrazolium compounds was tested in fetal bovine serum and monitored by HPLC analysis.

[4] = tested on: A2780 ovarian cancer cells; assay: Effect of iron supplementation on toxicity, LIVE/DEAD stain, flow cytometry; type: cell-based, human; conditions: compounds 40 μM with or without ferric ammonium citrate 50 μM or holo-transferrin 50 μM, 48 h
Experimental: FIGS. 6A-6B depict the effects of iron supplementation on toxicity in A2780 ovarian cancer cells. The percentage of dead cells was determined using the LIVE/DEAD fixable stain as measured by flow cytometry. FIG. 6A depicts the quantification of dead cells after treating in the presence of test compounds (40 μM) with or without ferric ammonium citrate (FAC, 50 μM) for 48 h. FIG. 6B depicts the quantification of dead cells after treating in the presence of test compounds (40 μM) with or without holo-transferrin (holo-TF, 50 μM) for 48 h. Experiments were conducted in triplicate and the values shown are averages ±standard deviation. **p<0.01, ***p<0.001, ****p<0.0001.
The biological activity of the tetrazolium and formazan compounds was investigated in A2780 cells, in which they presented the highest antiproliferative activity. In particular, experiments were performed to confirm that the antiproliferative activity of these compounds is associated with the availability of intracellular iron.

[5] = Fe(II) coordination in buffered aqueous solution (optical absorption changes); type: physicochemical; conditions: absorption 500-800 nm
Experimental: These two compounds were retained in the experiments as controls.
The tetrazolium salts (FIGS. 4A-4B) were synthesized from the formazans by the process outlined in FIG. 4C, which included oxidation with N-bromo-succinimide. For structures featuring a 2-hydroxyphenyl group, the oxidation was carried out on methoxyphenyl precursors and followed by a demethylation step in the presence of BBr3. The tetrazolium compounds were isolated as bromide salts.

| Compound | Ered vs. NHE (peak potential Ep) [1] [mV] | IC50 (Caco-2 (Colon)) [µM] | IC50 (MDA-MB-231 (Breast)) [µM] | Antiproliferative activity / toxicity in the cell panel, in words [2] | IC50 (MRC-5 (Normal lung)) [µM] | IC50 (A549 (Lung)) [µM] | IC50 (A2780 (Ovary)) [µM] | other results |
| --- | --- | --- | --- | --- | --- | --- | --- | --- |
| [Br-].c1ccc(-c2nn(-c3nc4ccccc4s3)[n+](-c3ccccc3)n2)cc1 [1b] | 207 | 40 ± 3 | 21 ± 2 | moderate antiproliferative activities | 97 ± 10 | 41 ± 3 | 23 ± 3 | Stability in serum [3]: significant degradation |
| [Br-].c1ccc(-c2nn(-c3ccccn3)[n+](-c3ccccc3)n2)cc1 [2b] | −130 | 13 ± 2 | 16 ± 2 | promising antiproliferative activities | > 100 | 17 ± 2 | 16 ± 3 | Effect of iron supplementation on cell death [4]: could be rescued by iron supplementation |
| Oc1ccccc1-n1nc(-c2ccccc2)n[n+]1-c1ccccc1.[Br-] [3b] | −328 | > 100 | > 100 | low cytotoxicity | > 100 | > 100 | > 100 | – |
| Oc1ccccc1-c1nn(-c2ccccn2)[n+](-c2ccccc2)n1.[Br-] [4b] | −102 | 29 ± 3 | 17 ± 2 | promising antiproliferative activities | > 100 | 28 ± 4 | 12 ± 3 | Effect of iron supplementation on cell death [4]: could be rescued by iron supplementation |
| Oc1ccccc1-n1nc(-c2ccccn2)n[n+]1-c1ccccc1.[Br-] [5b] | −380 | > 100 | > 100 | low cytotoxicity | > 100 | > 100 | 90 ± 10 | – |
| c1ccc(N=NC(=NNc2ccccc2)c2ccccn2)cc1 [6a] | – | – | – | – | – | – | – | Iron binding [5]: did not show any indication of iron binding |
| [Br-].c1ccc(-n2nc(-c3ccccn3)n[n+]2-c2ccccc2)cc1 [6b] | −241 | > 100 | > 100 | low toxicity | > 100 | > 100 | 74 ± 4 | Effect of iron supplementation on cell death [4]: not altered by iron supplementation |
| Oc1ccccc1C(N=Nc1ccccc1)=NNc1ccccc1 [7a] | – | – | – | – | – | – | – | Iron binding [5]: did not show any indication of iron binding |
| Oc1ccccc1-c1nn(-c2ccccc2)[n+](-c2ccccc2)n1.[Br-] [7b] | −187 | > 100 | > 100 | low toxicity | > 100 | > 100 | 74 ± 7 | – |
| O=C(O)c1ccc(-n2nc(-c3ccccc3O)nc2-c2ccccc2O)cc1 [DFX, deferasirox, reference compound] | – | – | – | – | – | – | – | IC50 (Caco-2 (Colon); Homo sapiens, Caco-2): 67 ± 2 µM; IC50 (MDA-MB-231 (Breast); Homo sapiens, MDA-MB-231): 17 ± 1 µM; IC50 (MRC-5 (Normal lung); Homo sapiens, MRC5): > 100 µM; IC50 (A549 (Lung); Homo sapiens, A549): 21 ± 3 µM; IC50 (A2780 (Ovary); Homo sapiens, A2780): 15 ± 0.5 µM |
| c1ccc(NN=C(N=Nc2nccc3ccccc23)c2ccccc2)cc1 [IQF] | – | – | 1.4 ± 0.5 | sub-micromolar or low-micromolar | – | – | 0.7 ± 0.1 | – |
| [Br-].c1ccc(-c2nn(-c3nccc4ccccc34)[n+](-c3ccccc3)n2)cc1 [IQT] | – | – | – | – | 14 ± 2 | – | 0.5 ± 0.1 | IC50 values in A2780 cell lines, in words (A2780 (Ovary)): sub-micromolar |
| Cc1nc(N=NC(=NNc2ccccc2)c2ccccc2)sc1C [MTF, reference compound] | – | – | – | – | – | – | – | Iron binding [5]: coordinate Fe(II) |
| Cc1nc(-[n+]2nc(-c3ccccc3)nn2-c2ccccc2)sc1C.[Br-] [MTT, reference compound] | 94 | 92 ± 7 | 48 ± 7 | moderate antiproliferative activities | 32 ± 5 | 44 ± 9 | 45 ± 9 | Stability in serum [3]: significant degradation |
| c1ccc(NN=C(N=Nc2ccc3ccccc3n2)c2ccccc2)cc1 [QF] | – | – | 7 ± 2 | sub-micromolar or low-micromolar | 89 ± 9 | – | 14 ± 2 | – |
| [Br-].c1ccc(-c2nn(-c3ccc4ccccc4n3)[n+](-c3ccccc3)n2)cc1 [QT] | – | – | 0.3 ± 0.1 | – | 3.5 ± 0.8 | – | 0.8 ± 0.1 | IC50 values in A2780 cell lines, in words (A2780 (Ovary)): sub-micromolar |
| c1ccc(NN=C(N=Nc2cnc3ccccc3n2)c2ccccc2)cc1 [QXF] | – | – | 22 ± 3 | sub-micromolar or low-micromolar | 11 ± 2 | – | 9 ± 2 | – |
| c1ccc(-c2nn(-c3cnc4ccccc4n3)[n+](-c3ccccc3)n2)cc1 [QXT] | – | – | 26 ± 3 | – | 45 ± 8 | – | 19 ± 2 | – |
| c1ccc(NN=C(N=Nc2ncc3ccccc3n2)c2ccccc2)cc1 [QZF] | – | – | 1.8 ± 0.5 | sub-micromolar or low-micromolar | 4.2 ± 0.3 | – | 0.6 ± 0.1 | – |
